Test results published in US12162867B2, “Inhibitors of RNA helicase DHX9 and uses thereof” (ACCENT THERAPEUTICS, INC., priority 2022, dated 2024).
Read-outs that look alike come from different tables or passages of the source.

Key:
Format in all cases: cell-based
[1] = tested on: circBRIP1 in HCT116 cells; assay: DHX9 circBRIP1 cellular target engagement TaqMan Multiplex assay (qPCR); settings: Homo sapiens, read-out: DHX9 Cellular Target Engagement EC50
LS411N cells = assay: DHX9 cellular proliferation assay (CellTiter-Glo), LS411N (CRC-MSI); settings: Homo sapiens, LS-411N, LS411N, performed at Pharmaron, read-out: LS411N (CRC-MSI-H) Antiproliferative IC50
NCI-H747 cells = assay: DHX9 cellular proliferation assay (CellTiter-Glo), NCI-H747 (CRC-MSS); settings: Homo sapiens, performed at Pharmaron, read-out: H747 (CRC-MSS) Antiproliferative IC50
[2] = tested on: circBRIP1 in HCT116 cells; assay: DHX9 circBRIP1 cellular target engagement SYBR Green assay (qPCR); settings: Homo sapiens, HCT-116, circBRIP1, HCT116 cells, read-out: DHX9 Cellular Target Engagement EC50
[3] = HCT-116, 72 h, circBRIP1, HCT116 cells, 72 hours, Taqman assay (marked *)

SMILES	EC50 ([1]; HCT-116, circBRIP1, HCT116 cells, * Taqman assay was used) [µM]	IC50 (LS411N cells) [µM]	IC50 (NCI-H747 cells; NCI-H747, NCI-H747) [µM]	EC50 [1, 3] [µM]	IC50 (LS411N cells; CRC-MSI-H) [µM]	IC50 (NCI-H747 cells; NCI-H747, NCI-H747, CRC-MSS) [µM]	EC50 ([2]; SyBr assay (marked ^+)) [µM]	EC50 ([2]; ^+ SyBr assay was used) [µM]
Cc1sc(C(=O)Nc2cc(Cl)cc(NS(C)(=O)=O)c2)cc1-c1ncccc1OC(C)c1cc(F)cc(F)c1 (single isomer, unassigned) [Example 633]	0.046	0.0104	6.46					
CCS(=O)(=O)Nc1cc(Cl)cc(NC(=O)c2cc(-c3ccc(F)cn3)c(C)s2)c1 [Example 346]				0.0438	0.0716	7.34		
CCS(=O)(=O)Nc1cc(Cl)cc(NC(=O)c2cc(-c3ncc(F)cc3F)c(C)s2)c1 [Example 347]				0.0968	0.16	> 10		
Cc1sc(C(=O)Nc2cc(Cl)cc(NS(C)(=O)=O)c2)cc1-c1ncc(F)cc1F [Example 349]				0.0582	0.154	> 10		
COc1cc(F)cnc1-c1cc(C(=O)Nc2cc(Cl)cc(NS(C)(=O)=O)c2)sc1C [Example 351]				0.0286	0.082	> 10		
COc1ccc(-c2cc(C(=O)Nc3cc(Cl)cc(NS(C)(=O)=O)c3)sc2C)nc1 [Example 352]				0.021	0.05	8.75		
CCS(=O)(=O)Nc1cc(Cl)cc(NC(=O)c2cc(-c3ncc(OC)cn3)c(C)s2)c1 [Example 353]				0.094	0.111	8.49		
CCS(=O)(=O)Nc1cc(Cl)cc(NC(=O)c2cc(-c3ncc(F)cc3OC)c(C)s2)c1 [Example 354]				0.0345	0.0715	8.06		
COc1cnc(-c2cc(C(=O)Nc3cc(Cl)cc(NS(C)(=O)=O)c3)sc2C)c(F)c1 [Example 358]				0.0533	0.129	6.87		
CCS(=O)(=O)Nc1cc(Cl)cc(NC(=O)c2cc(-c3ncc(OC)cc3F)c(C)s2)c1 [Example 360]				0.0521	0.235	7.07		
COc1cnc(-c2cc(C(=O)Nc3cc(Cl)cc(NS(C)(=O)=O)c3)sc2C)c(C)c1 [Example 361]				0.0432	0.361	6.25		
Cc1cc(C(=O)Nc2cc(Cl)cc(NS(C)(=O)=O)c2)cn1-c1ccc(F)cn1 [Example 390]					0.0631	> 10	0.167	
COc1ccc(-n2cc(C(=O)Nc3cc(Cl)cc(NS(C)(=O)=O)c3)cc2C)nc1 [Example 391]					0.171	> 10	0.063	
Cc1cc(C(=O)Nc2cc(Cl)cc(NS(C)(=O)=O)c2)cn1-c1ccc(N2CC(F)C2)cn1 [Example 395]		0.117	9.22					0.0238
Cc1cc(C(=O)Nc2cc(Cl)cc(NS(C)(=O)=O)c2)cn1-c1ccc(N2CCC(F)(F)C2)cn1 [Example 396]		0.122	> 10					0.033
Cc1cc(C(=O)Nc2cc(Cl)cc(NS(C)(=O)=O)c2)cn1-c1ccc(N2CCC2)cn1 [Example 397]		0.0465	6.94					0.0263
Cc1cc(C(=O)Nc2cc(Cl)cc(NS(C)(=O)=O)c2)cn1-c1ncc(N2CCC2)cn1 [Example 398]		0.116	> 10					0.0411
Cc1cc(C(=O)Nc2cc(Cl)cc(NS(C)(=O)=O)c2)cn1-c1ccc(N2CC(F)(F)C2)cn1 [Example 399]		0.0952	8.89					0.0344
Cc1cc(C(=O)Nc2cc(Cl)cc(NS(C)(=O)=O)c2)cn1-c1ccc(N2CCCC2=O)cn1 [Example 410]		0.373	> 10					0.0212
Cc1cc(C(=O)Nc2cc(Cl)cc(NS(C)(=O)=O)c2)cn1-c1ccc(N2CC3CC3C2)cn1 (stereo not drawn) [Example 411]		0.142	> 10					0.0741
Cc1cc(C(=O)Nc2cc(Cl)cc(NS(C)(=O)=O)c2)cn1-c1ncc(N2CC(F)(F)C2)cn1 [Example 418]		0.139	> 10					0.0674
CN1C(=O)N(c2csc(C(=O)Nc3cc(Cl)cc(NS(C)(=O)=O)c3)c2)C(=O)C1(C)C [Example 432]		0.141	> 10					0.112
COc1cnn(-c2cc(C(=O)Nc3cc(Cl)cc(NS(C)(=O)=O)c3)sc2C)c1 [Example 436]		0.272	> 10					0.0895
CCOc1ccc(-n2cc(C(=O)Nc3cc(Cl)cc(NS(C)(=O)=O)c3)cc2C)nc1 [Example 437]		0.123	> 10					0.0468

SMILES	EC50 ([1]; HCT-116, circBRIP1, HCT116 cells, * Taqman assay was used) [µM]	IC50 (LS411N cells) [µM]	IC50 (NCI-H747 cells; NCI-H747, NCI-H747) [µM]	EC50 [1, 3] [µM]	IC50 (LS411N cells; CRC-MSI-H) [µM]	IC50 (NCI-H747 cells; NCI-H747, NCI-H747, CRC-MSS) [µM]	EC50 ([2]; SyBr assay (marked ^+)) [µM]	EC50 ([2]; ^+ SyBr assay was used) [µM]
CCOc1cnn(-c2cc(C(=O)Nc3cc(Cl)cc(NS(C)(=O)=O)c3)sc2C)c1 [Example 438]		0.508	> 10					0.0912
COc1cnc(-n2cc(C(=O)Nc3cc(Cl)cc(NS(C)(=O)=O)c3)cc2C)nc1 [Example 441]		0.13	> 10					0.123
COCCOc1ccc(-n2cc(C(=O)Nc3cc(Cl)cc(NS(C)(=O)=O)c3)cc2C)nc1 [Example 442]		0.123	> 10					0.046
Cc1cc(C(=O)Nc2cc(Cl)cc(NS(C)(=O)=O)c2)cn1-c1ccc(C(F)(F)F)cn1 [Example 443]		0.353	4.36					0.096
COCc1ccc(-n2cc(C(=O)Nc3cc(Cl)cc(NS(C)(=O)=O)c3)cc2C)nc1 [Example 447]		0.11	> 10					0.0278
Cn1cc(C(=O)Nc2cc(Cl)cc(NS(C)(=O)=O)c2)cc1-c1ncc(N2CCCC2)cn1 [Example 520]		0.118	> 10					0.0402
Cn1cc(C(=O)Nc2cc(Cl)cc(NS(C)(=O)=O)c2)cc1-c1ncc(N2CCC2)cn1 [Example 521]		0.069	> 10					0.0351
Cn1cc(C(=O)Nc2cc(Cl)cc(NS(C)(=O)=O)c2)cc1-c1ccc(N2CCC2)cn1 [Example 538]		0.124	3.62					0.0574
Cn1cc(C(=O)Nc2cc(Cl)cc(NS(C)(=O)=O)c2)cc1-c1ccc(N2CC(F)C2)cn1 [Example 539]		0.0983	7.01					0.0162
COc1cc(F)cnc1-c1cc(C(=O)Nc2cc(Cl)cc(NS(C)(=O)=O)c2)cn1C [Example 568, N-(3-chloro-5-methanesulfonamidophenyl)-5-(5-fluoro-3-methoxypyridin-2-yl)-1-methylpyrrole-3-carboxamide]		0.349	> 10					0.0575
Cn1cc(C(=O)Nc2cc(Cl)cc(NS(C)(=O)=O)c2)cc1-c1ncc(C(F)(F)F)cn1 [Example 571]		0.159	3.56					0.0621
CCOc1ccc(-c2cc(C(=O)Nc3cc(Cl)cc(NS(C)(=O)=O)c3)cn2C)nc1 [Example 572]		0.144	> 10					0.0551
COc1ccc(-c2cc(C(=O)Nc3cc(Cl)cc(NS(C)(=O)=O)c3)cn2C)nc1 [Example 573]		0.103	> 10					0.106
COCc1ccc(-c2cc(C(=O)Nc3cc(Cl)cc(NS(C)(=O)=O)c3)cn2C)nc1 [Example 574]		0.0922	> 10					0.0395
Cn1cc(C(=O)Nc2cc(Cl)cc(NS(C)(=O)=O)c2)cc1-c1ncccc1OCC1CC1 [Example 584]		0.122	> 10					0.0421
Cn1cc(C(=O)Nc2cc(Cl)cc(NS(C)(=O)=O)c2)cc1-c1ccc(N2CC(F)(F)C2)cn1 [Example 595, N-(3-chloro-5-methanesulfonamidophenyl)-5-[5-(3,3-difluoroazetidin-1-yl)pyridin-2-yl]-1-methyl-1H-pyrrole-3-carboxamide]		0.167	7.4					0.0352
CS(=O)(=O)Nc1cc(Cl)cc(NC(=O)c2cc(-c3ncccc3OCc3cncc(F)c3)cs2)c1 [Example 620, N-(3-chloro-5-methanesulfonamidophenyl)-4-{3-[(5-fluoropyridin-3-yl)methoxy]pyridin-2-yl}thiophene-2-carboxamide]		0.0264	> 10					0.0062
Cc1sc(C(=O)Nc2cc(Cl)cc(NS(C)(=O)=O)c2)cc1-c1ncccc1OCc1cncc(F)c1 [Example 621]		0.0087	> 10					0.002
COCc1cnc(-c2cc(C(=O)Nc3cc(Cl)cc(NS(C)(=O)=O)c3)cn2C)nc1 [Example 690]		0.183	> 10					0.0557
Cc1cc(C(=O)Nc2cc(Cl)cc(NS(C)(=O)=O)c2)cn1-c1ncccc1OCC1CC1 [Example 713]		0.105	> 10					0.105
CS(=O)(=O)Nc1cc(Cl)cc(NC(=O)c2cnn(-c3c(F)cccc3OCc3cncc(F)c3)c2)c1 [Example 718]		0.114	> 10					0.137
CS(=O)(=O)Nc1cc(Cl)cc(NC(=O)c2cnn(-c3ccc(N4CC5(COC5)C4)cc3OCc3cccc(F)c3)c2)c1 [Example 722]		0.0506	> 10					0.0511
CS(=O)(=O)Nc1cc(Cl)cc(NC(=O)c2cc(CO)n(-c3ncccc3OCc3cncc(F)c3)c2)c1 [Example 723]		0.733	> 10					0.0735
